Data: the COVID Moonshot data (paper PMC11187573), “Identification of SARS-CoV-2 Mpro inhibitors through deep reinforcement learning for de novo drug design and computational chemistry approaches” (RSC Medicinal Chemistry, 2024)

Tests used:
[1] = biological target: SARS-CoV-2 Main Protease (SARS-CoV-2) (UniProt P0DTD1)
[2] = biological target: SARS-CoV-2 Main Protease (SARS-CoV-2) (UniProt P0DTD1); remark: listed apart in the source

Row | Structure (SMILES) | inhibition ([1]; 50.0 µM) | relative solubility at 20 uM | relative solubility at 100 uM | inhibition ([2]; 20.0 µM) | inhibition ([2]; 50.0 µM) | inhibition ([1]; 20.0 µM) | IC50 [1]
1 | O=C(NCc1ccccc1OCCO)C(=O)N[C@H]1C[C@H]1C1CCOCC1 (stereo in doubt) | 0% | 1.01 | 1 | 1.34% | -9.81% | – | –
2 | O=C(CCn1ccnn1)NC(CN1CCOCC1)c1ccccc1 (stereo unspecified) | 0% | 1 | 1 | 2.31% | 5.19% | 0% | –
3 | CCCSCC(=O)C(C#N)C(=O)Nc1ccc(F)cc1F (stereo unspecified) | 3.54% | 1.01 | 1.01 | – | 21.8% | 3.06% | –
4 | N#Cc1cccc(NC(=O)Nc2cncc(N)c2)c1 | 48.4% | 1 | 1 | – | 57.2% | 9.09% | –
5 | C#CCN1CCN(C(=O)C=C)CC1 | – | 1.01 | 1.01 | -18.6% | -15% | 3.23% | –
6 | O=C(c1cc(=O)[nH]c2ccccc12)N1CCN(c2ccc(F)cc2)CC1 | 52.3% | 0.99 | 0.99 | 57% | 78.5% | – | 52.7 µM
7 | CN(C)c1ccc(N(Cc2ccsc2)C(=O)Cn2nnc3ccccc32)cc1 | 90.3% | 0.92 | 0.48 | 84.4% | 90.5% | – | 5.37 µM
8 | Cc1cc(Cl)cc(NC(=O)Nc2cccnc2)c1 | 35.4% | 1 | 1 | – | 12.7% | 0% | –
9 | O=C(Cc1cncnc1)Nc1cc(F)cc(OC2CC(=O)N2)c1 (stereo unspecified) | 45.7% | 0.99 | 0.99 | 52.8% | 87.8% | – | –
10 | Cc1ccncc1NC(=O)CN1C(=O)COc2ccc(Cl)cc21 | 67.2% | 0.99 | 0.99 | 32.8% | 49.3% | – | 38.9 µM
11 | O=C(Nc1nncn1C1CC1)[C@H]1CCOc2ccc(Cl)cc21 (stereo in doubt) | -19.4% | 1.01 | 1 | -13.3% | -7.61% | – | –
12 | Cn1cc(S(N)(=O)=O)cc1CC(=O)Nc1cccc(C(=O)NCc2ccccn2)c1 | 0% | 1 | 1 | -21.5% | -0.596% | – | –
13 | C=CC(=O)N(c1ccc(CC)c(I)c1)C(C(=O)NC(C)(C)C)c1cccnc1 (stereo unspecified) | 9.38% | 0.95 | 0.93 | 15.2% | 20.7% | – | –
14 | NS(=O)(=O)c1ccc(N2CCC(CO)CC2)cc1 | 2.83% | 1 | 1 | 3.95% | 7.03% | -1.13% | –
15 | Cc1ccccc1CNc1ccccc1NC(=O)C(O)c1cccnc1 (stereo unspecified) | 35.7% | 0.95 | 0.94 | -0.056% | 7.28% | 4.59% | –
16 | CC(=O)NCCc1cn(CC(=O)N2CCOCC2)c2ccccc12 | 0% | 0.97 | 0.96 | – | 6.56% | 0% | –
17 | COc1ccc(C2CC(c3cccs3)=NN2C(=O)CCl)cc1OC (stereo unspecified) | 91.1% | 0.95 | 0.83 | 99.4% | 99.2% | 95.7% | 0.969 µM
18 | C=CC(=O)N(c1ccc(C(C)(C)C)cc1)C(C(=O)NC(C)C)c1cccnc1 (stereo unspecified) | 0% | 1 | 1 | -1.73% | 0.416% | 0% | –
19 | CN(CCNC(=O)c1cc(=O)[nH]c2ccccc12)c1ccccc1 | 8.3% | 0.91 | 0.77 | -2.32% | 19.2% | – | –
20 | CO[C@H](C)C(=O)Nc1cnccc1C (stereo in doubt) | 6.56% | 1.01 | 1 | 4.95% | 8.97% | – | –

Row | Structure (SMILES) | inhibition ([1]; 50.0 µM) | relative solubility at 20 uM | relative solubility at 100 uM | inhibition ([2]; 20.0 µM) | inhibition ([2]; 50.0 µM) | inhibition ([1]; 20.0 µM) | IC50 [1]
21 | O=C(CCNC(=O)c1c[nH]c2ccccc12)Nc1ccc(-n2cnc3ccccc32)cc1 | 43.9% | 0.82 | 0.54 | -3.48% | 8.08% | – | –
22 | O=C(Cc1c[nH]c2ncccc12)NCc1cc(Cl)ccn1 | – | 1 | 0.98 | 2.58% | 8.45% | 0% | –
23 | C=CC(=O)N1CCN(Cc2cc(Cl)cc3ccccc23)CC1 | 0% | 0.86 | 0.75 | – | 37.9% | 0% | –
24 | C=CC(=O)N(c1cc(C(C)(C)C)on1)C(C(=O)NCCc1cccc(F)c1)c1cccnc1 (stereo unspecified) | 100% | 0.98 | 0.97 | 16.7% | 31.3% | – | 10.9 µM
25 | CCC(C)(C)CCN(Cc1ccsc1)C(=O)Cn1nnc2ccccc21 | 40.1% | 0.99 | 0.73 | – | 48.3% | -4.79% | –
26 | CN(C)C/C=C/C(=O)Nc1c[nH]c2ccccc12 | – | 1 | 1 | 5.8% | 22.5% | 0% | –
27 | C=CC(=O)N(c1ccc(C(C)(C)C)cc1)C(C(=O)NCCc1cccc(F)c1)c1cncc(C#N)c1 (stereo unspecified) | 89.2% | 0.57 | 0.46 | 49.6% | 87.1% | – | 2.47 µM
28 | C=CC(=O)N1CCCN(Cc2ccccc2)CC1 | – | 1 | 1 | 0.947% | 9.99% | 0% | –
29 | N#CC(C(=O)Nc1cccc(Cl)c1)C(=O)c1cccs1 (stereo unspecified) | 0% | 1 | 1 | – | 31.8% | 0% | –
30 | CCOCC1CCN(c2ccc(S(N)(=O)=O)cc2)CC1 | 44.6% | 1 | 1 | – | 7.41% | 21.8% | –
31 | O=C(Cc1cc(Cl)cc(Cl)c1)Nc1nncs1 | 0% | 0.84 | 0.7 | 13.9% | -0.821% | – | –
32 | Cc1ccncc1NC(=O)C1(c2cccc(Cl)c2)CC1 | 43.3% | 1.01 | 1 | 38.4% | 61.6% | – | –
33 | NS(=O)(=O)c1ccc2c(c1)C(=O)C(=O)N2 | 37.1% | 1.01 | 1 | -2.6% | -3.21% | – | –
34 | C=CC(=O)N(c1ccc(SC)cc1)C(C(=O)Nc1ccc(Cl)cc1)c1cccnc1 (stereo unspecified) | – | 0.81 | 0.64 | 16.9% | 32.3% | 9.4% | –
35 | Cc1ccncc1NC(=O)Cc1ccc2[nH]ccc2c1 | 0% | 1 | 1 | 2.86% | -2.33% | – | –
36 | O=C(Nc1ccccc1Cl)c1cc(Cl)ccc1O | – | 0.91 | 0.7 | 5.47% | 5.58% | 7.14% | –
37 | Cc1cccc(NC(=O)C(C#N)C(=O)CC(C)C)c1 (stereo unspecified) | 0% | 1 | 1 | – | -0.258% | 0% | –
38 | O=S(=O)(NC1(Cc2ccccc2)CCOCC1)c1cccnc1 | 11.6% | 1 | 1 | -34.8% | 3.06% | – | –
39 | O=C(Cn1nnc2ccccc21)NCc1ccc(Oc2cccnc2)c(F)c1 | – | 0.99 | 0.99 | -21.1% | -19.3% | 0% | –
